Key:
[1] = molecular target: T1, juvenile hormone-binding protein (JHBP) (Bombyx mori, UniProt Q9U556); assay: crystal structure ([…] Å); competition with 3H-JH III (charcoal assay)
T1 construct: gene hJHBP; recombinant mature JHBP

[2] = molecular target: T1, juvenile hormone-binding protein (JHBP); assay: radioligand competition with 3H-JH III (dextran-coated charcoal)

Row | Compound | IC50 [1] [µM] | IC50 [2] [µM]
1 | CC(O)CC(C)(C)O (racemic) [MPD, 2-methyl-2,4-pentanediol] | 160 | –
2 | COC(C)(C)CCC[C@H](C)C/C=C/C(C)=C/C(=O)OC(C)C (racemic) [methoprene] | – | 35

Reference: publication PMC3577830, “Crystal Structure of Silkworm Bombyx mori JHBP in Complex With 2-Methyl-2,4-Pentanediol: Plasticity of JH-Binding Pocket and Ligand-Induced Conformational Change of the Second Cavity in JHBP” (PLoS ONE, 2013)
